Experimental data published in patent EP1658050B1, “SELF-NANOEMULSIFYING OILY FORMULATION FOR THE ADMINISTRATION OF POORLY WATER-SOLUBLE DRUGS” (Novagali Pharma S.A., priority 2003, dated 2005).

Tests used:
[1] = humans; after oral paclitaxel administration; cited from earlier work
[2] = Pharmacokinetic study of oral paclitaxel emulsions after cyclosporin A oral pretreatment (paclitaxel plasma levels by HPLC-UV); format: in vivo, FVB Wild-type mice; conditions: intravenous 10 mg/kg paclitaxel; with versus without 10 mg/kg oral CsA; wild-type mice

increase of intravenously administered paclitaxel AUC by oral pre-treatment with cyclosporin A [2]: 2.35 fold
SMILES: CC(=O)O[C@H]1C(=O)[C@@]2(C)[C@H]([C@H](OC(=O)c3ccccc3)[C@]3(O)C[C@H](OC(=O)[C@H](O)[C@@H](NC(=O)c4ccccc4)c4ccccc4)C(C)=C1C3(C)C)[C@]1(OC(C)=O)CO[C@@H]1C[C@@H]2O [paclitaxel, Paclitaxel]
systemic bioavailability [1]: less than 6%
